Test results taken from US20210315970A1, “Hepatitis A Virus Replication Inhibitor Targeting mTOR” (Tokyo Metropolitan Institute of Medical Science, priority 2020, published 2021).

What was measured:
subgenomic HAV RNA = assay: Subgenomic HAV RNA replicon replication in transfected Huh-7.5 cells; assay type: cell-based, hepatitis A virus
Method: FIG. 4i Inhibition of subgenomic HAV/NLuc RNA replication in the transfected Huh-7.5 cells by three different mTOR inhibitors and DAA (30 μM 2′CMA). **P<0.01 vs. DMSO control group (one-way analysis of variance with Dunnett's multiple comparison test).
In vitro transcription of HAV or HCV RNA was performed with T7 RiboMAX Express Large Scale RNA production system (Promega) according to the manufacturer's protocol. Transfection of viral RNA was carried out in Gene Pulser Xcell Total System (Bio-Rad Laboratories) as previously described^33, or with TransIT-mRNAtransfection kit (Mirus) for HAV-Luc RNA as previously described^32.
(§1) GLuc analysis of HCV replication and dual luciferase assay for analyzing the transcriptional induction were carried out according to the previously described methods^31,32. NanoLuc activity was determined with Nano-Glo Luciferase Assay System (Promega) according to the manufacture's protocol. For virus replication assays, the medium was replaced with a drug-containing medium at 1 hour post inoculation.

[1] = test system: HAV expressing NanoLuc reporter (18f strain, HAV/NLuc); assay: HAV/NLuc reporter virus replication in HuH-7 cells (NanoLuc activity); assay type: cell-based, hepatitis A virus; settings: for virus replication compared to rapalogs that target mTOR alone: HAV, dual mTOR/PI3K inhibitors; for virus replication level reduced to (NanoLuc activity): highest dose (10 μM); for viral replication level reduced to (NanoLuc activity): HuH-7 cells infected with HAV/NLuc, drug given 1 hour after infection, 48 hours post-infection
Method: (§2) HuH-7 cells were infected with HAV/NLuc and drugs were given 1 hour after infection. 48 hours later, NanoLuc activities were measured to evaluate the virus replication levels. In addition, WST-8 reagent (Cell Counting Kit-8, Dojindo) was used to evaluate cell viability after the drug treatment.
pHM175/18f-NLuc plasmid was prepared by PCR amplification of the NLuc open reading frame using pNL1.1 plasmid (Promega) as a template and primers containing a triglycine sequence flanked by XbaI and BamHI restriction enzyme sites. This PCR product was digested with these enzymes and ligated into similarly digested pSK-2A-Zeo-2B plasmid^36 to give pSK-2A-NLuc-2B plasmid. This plasmid was further digested with SacI/PflMI to cleave out the entire 2A-NLuc-2B fragment, which was ligated into similarly digested HM175/18f parental plasmid^37 to give pHM175/18f-NLuc reporter virus.
as §1

HAV [2] = assay: HAV-infected mouse model, viral RNA shed in feces (real-time PCR); assay type: in vivo; settings: Ifnar1-/- C57BL/6 mice, 15 mg/kg orally from Day 5 after infection, daily for 14 days except Day 9 and Day 16
Method: Type-I interferon receptor (Ifnar1)-knockout C57BL/6 mice were infected by tail vein injection of the virus equivalent to 1.7×10^9 genome copy number. Pictilisib (15 mg/kg) was administered 5 days after infection and viral RNA contained in the later shed feces was quantified by real-time PCR to analyze the antiviral action of the drug (Reference 3).
The drug was orally administered from Day 5 following the infection and continuously administered daily for 14-consecutive days except Day 9 and Day 16. The viral RNA levels shed in the feces reflect the viral load in the liver and thus the viral RNA levels in the feces were quantified. As a result, the viral RNA level was reduced to about one-tenth by administration of the drug, confirming its antiviral effect (FIG. 6).
Virus: HAV-HM175 strain, 1.7×10^9 GE, iv route
Vehicle: 0.5% methyl cellulose/0.2% Tween 80
Mice: Ifnar1^−/− C57BL/6, 5 animals/group
The drug was orally administered from Day 5 following the infection for 14 consecutive days except Day 9 and Day 16. Viral level in the feces was quantified with time because it can serve as an indicator that reflects the viral level in the liver.

[3] = phase II trial; cited from earlier work
HuH-7 cells = assay: Cell viability after drug treatment (WST-8, Cell Counting Kit-8); assay type: cell-based, human; settings: at concentrations that suppress virus replication
Method: as §2
MicroRNA-122 mimics were synthesized by Dharmacon and transfected as miRNA/miRNA* duplex by electroporation as previously described^33. Puromycin, Blasticidin and Ruxolitinib were purchased from InvivoGen. Pyridone 6 was obtained from EMD Millipore. Recombinant human IFN-λ1 and IFN-α and actinomycin D were purchased from Sigma-Aldrich. Recombinant human IFN-γ was obtained from PeproTech. PSI-7977 (sofosbuvir) was obtained from ChemScene and 2′-C-methyl adenosine (2′ CMA) was obtained from Santa Cruz Biotechnology. Cell viabilities were determined using Cell Counting Kit-8 (Dojindo) on 96-well plates according to the manufacturer's protocol.

HAV [4] = assay: HAV replication in Huh-7.5 cells; assay type: cell-based, hepatitis A virus; settings: IRF1-dependent
Method: (§3) High-titer HAV (HM175/18f strain) was mycoplasma-free and was prepared as previously described^34. HAV infection was performed at a multiplicity of infection (MOI) of 10. SeV (Cantell strain) was obtained from Charles River Laboratories, and was inoculated at 50 U ml^−1 unless otherwise indicated. Infection with HCV-carrying Gaussia luciferase (GLuc) reporter was performed as previously described^32. DENV serotype 2 (olSa-054 strain) and ZIKV (MR-766 and AB-59 strains) were propagated in Vero, C6/36 or Huh-7.5 cells and inoculated at MOI=1 as previously described^35.
Total RNA extraction was performed using RNeasy Mini Kit (QIAGEN), QIAamp viral RNA Mini Kit (QIAGEN) or TRIzol (Thermo Fisher). HAV genomic RNA was detected by a two-step RT-qPCR analysis using SuperScript III First-Strand Synthesis System (Thermo Fisher Scientific) and iTaq Universal SYBR Green Supermix (Bio-Rad Laboratories), or Thunderbird SYBR qPCR Mix (TOYOBO). 5′-GGTAGGCTACGGGTGAAAC-3′ (SEQ ID NO:3) and 5′-[…]-3′ (SEQ ID NO:4) were used as HAV-specific primers

HAV [5] = assay: HAV replication in cells overexpressing RARRES3 or C113S mutant (lentiviral vectors); assay type: cell-based, hepatitis A virus; settings: cells overexpressing the protein
[6] = test system: human rhinovirus 14 (HRV-14); assay: HRV-14 replication with RARRES3 overexpression; assay type: cell-based
HCV = HCV replication in Huh-7.5 cells; assay type: cell-based, hepatitis C virus; settings: RARRES3 overexpression
Method: as §3, §1

DENV = DENV replication in Huh-7.5 cells; assay type: cell-based, dengue virus; settings: RARRES3 overexpression
Method: as §3
Plasmids encoding capsid and subgenomic RNA containing NS1-5 regions fused with a NanoLuc reporter flanked by 5′ and 3′ untranslated RNAs derived from DENV1 (D1/Hu/Saitama/NIID100/2014 strain) and DENV2-derived premembrane and envelope protein (olSa-054 strain) were transfected into HEK293T cells. Infectious virons secreted in the supernatant were harvested according to the previously described method^38.
Primer pair targeting DENV genomic RNA, 5′-[…]-3′ (SEQ ID NO:57) and 5′-CATCATTAAGTCGAGGGCC-3′ (SEQ ID NO:58), or primer pair targeting ZIKV genomic RNA, 5′-[…]-3′ (SEQ ID NO:59) and 5′[…]-3′ (SEQ ID NO:60) was used with RNA-direct SYBR Green Realtime PCR Master Mix (TOYOBO) to quantify DENV and ZIKV RNA abundance.

C[C@@]1(O)[C@H](O)[C@@H](CO)O[C@H]1n1cnc2c(N)ncnc21 [2′CMA, 2′-C-methyl adenosine]
subgenomic HAV/NLuc RNA replication (subgenomic HAV RNA; transfected Huh-7.5 cells, 2′CMA 30 μM): Inhibition

Oc1cccc(-c2nc(N3CCOCC3)c3oc4ncccc4c3n2)c1 [PI-103]
virus replication compared to rapalogs that target mTOR alone [1]: one-tenth
virus replication level reduced to (NanoLuc activity) ([1]; HAV/NLuc-infected cells): about one-thousandth

CS(=O)(=O)N1CCN(Cc2cc3nc(-c4cccc5[nH]ncc45)nc(N4CCOCC4)c3s2)CC1 [Pictilisib]
viral RNA level in the feces reduced to (HAV [2]): about one-tenth
virus replication compared to rapalogs that target mTOR alone [1]: one-tenth
virus replication level reduced to (NanoLuc activity) ([1]; HAV/NLuc-infected cells): about one-thousandth
safety to human [3]: confirmed to be safe to human

CCC(=O)N1CCN(c2ccc(-n3c(=O)ccc4cnc5ccc(-c6cnc7ccccc7c6)cc5c43)cc2C(F)(F)F)CC1 [Torin-1, 1-[4-[4-(1-oxopropyl)-1-piperazinyl]-3-(trifluoromethyl)phenyl]-9-(3-quinolinyl)-benzo[h]-1,6-naphthyridin-2(1H)-one]
HAV replication (effect in words) ([1]; HAV/NLuc-infected cells): suppressed strongly
viral replication level reduced to (NanoLuc activity) [1]: one-hundredth
cell viability (HuH-7 cells): without having an influence on the cell viability

CO[C@H]1C[C@@H]2CC[C@@H](C)[C@@](O)(O2)C(=O)C(=O)N2CCCC[C@H]2C(=O)O[C@H]([C@H](C)C[C@@H]2CC[C@@H](OCCO)[C@H](OC)C2)CC(=O)[C@H](C)/C=C(\C)[C@@H](O)[C@@H](OC)C(=O)[C@H](C)C[C@H](C)/C=C/C=C/C=C/1C [everolimus]
viral replication level reduced to (NanoLuc activity) [1]: one-twentieth
cell viability (HuH-7 cells): without having an influence on the cell viability

CO[C@H]1C[C@@H]2CC[C@@H](C)[C@@](O)(O2)C(=O)C(=O)N2CCCC[C@H]2C(=O)O[C@H]([C@H](C)C[C@@H]2CC[C@@H](O)[C@H](OC)C2)CC(=O)[C@H](C)/C=C(\C)[C@@H](O)[C@@H](OC)C(=O)[C@H](C)C[C@H](C)/C=C/C=C/C=C/1C [rapamycin]
cell viability (HuH-7 cells): without having an influence on the cell viability

CO[C@H]1C[C@@H]2CC[C@@H](C)[C@@](O)(O2)C(=O)C(=O)N2CCCC[C@H]2C(=O)O[C@H]([C@H](C)C[C@@H]2CC[C@@H](OC(=O)C(C)(CO)CO)[C@H](OC)C2)CC(=O)[C@H](C)/C=C(\C)[C@@H](O)[C@@H](OC)C(=O)[C@H](C)C[C@H](C)/C=C/C=C/C=C/1C [temsirolimus]
viral replication level reduced to (NanoLuc activity) [1]: one-twentieth
cell viability (HuH-7 cells): without having an influence on the cell viability

B1: IFN-γ: Recombinant human IFN-γ obtained from PeproTech (protein, UniProt P01579 24-161, looked up)
Interferon gamma: QDPYVKEAENLKKYFNAGHSDVADNGTLFLGILKNWKEESDRKIMQSQIVSFYFKLFKNFKDDQSIQKSVETIKEDMNVKFFNSNKKKRDDFEKLTNYSVTDLNVQRKAIHELIQVMAELSPAAKTGKRKRSQMLFRG
HAV replication (HAV [4]): restricted HAV replication

B2: RARRES3: retinoic acid receptor responder protein 3, SEQ ID NO:2, phospholipase A / acyltransferase activity (protein, listed as Homo sapiens)
chain: MASPHQEPKPGDLIEIFRLGYEHWALYIGDGYVIHLAPPSEYPGAGSSSVFSVLSNSAEVKRERLEDVVGGCCYRVNNSLDHEYQPRPVEVIISSAKEMVGQKMKYSIVSRNCEHFVTQLRYGKSRCKQVEKAKVEVGVATALGILVVAGCSFAIRRYQKKATA
HAV replication (HAV [5]): strongly suppressed
HRV-14 replication [6]: did not restrict
replication of subgenomic RNA replicon (subgenomic HAV RNA; Huh-7.5 cells expressing RARRES3): suppressed
HCV replication (HCV): did not restrict
DENV replication (DENV): did not restrict
